Patent publication US20230047816A1 (priority 2018, published 2023)

Target: Recombinant full length human PFKFB3 (Homo sapiens, UniProt Q16875)
Test: PFKFB3 kinase activity assay (ADP production, ADP-Glo)

Chain of Recombinant full length human PFKFB3 (Q16875 whole entry): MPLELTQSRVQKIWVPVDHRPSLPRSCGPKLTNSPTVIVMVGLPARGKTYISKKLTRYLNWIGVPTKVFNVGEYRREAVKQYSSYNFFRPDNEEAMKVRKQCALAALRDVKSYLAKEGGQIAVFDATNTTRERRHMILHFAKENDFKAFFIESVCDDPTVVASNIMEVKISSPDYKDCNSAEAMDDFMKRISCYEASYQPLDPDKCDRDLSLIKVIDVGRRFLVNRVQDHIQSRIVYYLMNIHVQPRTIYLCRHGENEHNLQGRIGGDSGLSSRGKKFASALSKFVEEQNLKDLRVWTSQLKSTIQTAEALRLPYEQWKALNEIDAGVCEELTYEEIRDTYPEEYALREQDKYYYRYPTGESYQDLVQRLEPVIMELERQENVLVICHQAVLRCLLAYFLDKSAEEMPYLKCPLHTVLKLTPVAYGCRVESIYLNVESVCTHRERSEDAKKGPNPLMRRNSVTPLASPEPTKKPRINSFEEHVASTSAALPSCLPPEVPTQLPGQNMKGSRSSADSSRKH

## CCCCOC(=O)c1ccc2c(c1)C(=O)N(c1cc(-c3ccc(F)c(F)c3)ccc1C(=O)O)C2 [Compound 128, 2-(4-Carboxy-3′,4′-difluoro-biphenyl-3-yl)-3-oxo-2,3-dihydro-1H-isoindole-5-carboxylic acid butyl ester]
  IC50: 5 to 20 µM

## COC(=O)c1ccc(-c2ccc(F)c(F)c2)cc1N1Cc2ccc(-c3nnn[nH]3)cc2C1=O [Compound 99, 3′,4′-Difluoro-3-[1-oxo-6-(1H-tetrazol-5-yl)-1,3-dihydroisoindol-2-yl]biphenyl-4-carboxylic acid methyl ester]
  IC50: 5 to 20 µM

## O=C(O)c1cc(-c2ccccc2)ccc1N1C(=O)c2ccc(-c3c[nH]nn3)cc2C1=O [Example 31, 4-[1,3-Dioxo-5-(1H-[1,2,3]triazol-4-yl)-1,3-dihydroisoindol-2-yl]biphenyl-3-carboxylic Acid]
  IC50: < 0.5 µM

## CN(C)CCOC(=O)c1ccc2c(c1)C(=O)N(c1cc(-c3ccc(F)c(F)c3)ccc1C(=O)O)C2 [Compound 129, 2-(4-Carboxy-3′,4′-difluorobiphenyl-3-yl)-3-oxo-2,3-dihydro-1H-isoindole-5-carboxylic acid 2-dimethylamino-ethyl ester]
  IC50: < 20 µM

## O=C(O)c1ccc(-c2ccc(F)c(F)c2)cc1N1Cc2ccc(-c3nn[nH]c3CO)cc2C1=O [compound 161, 3′,4′-difluoro-3-(6-(5-(hydroxymethyl)-1H-1,2,3-triazol-4-yl)-1-oxoisoindolin-2-yl)biphenyl-4-carboxylic acid]
  IC50: 5 to 20 µM

## COc1ccc(-c2ccc(C(=O)O)c(N3C(=O)c4ccc(C(=O)O)cc4C3=O)c2)cc1F [Compound 144, 2-(4-Carboxy-3′-fluoro-4′-methoxy[1,1′-biphenyl]-3-yl)-1,3-dioxo-2,3-dihydro-1H-isoindole-5-carboxylic acid]
  IC50: < 0.5 µM

## COc1ccc(-c2nnn[nH]2)c(N2C(=O)c3ccc(-c4c[nH]nn4)cc3C2=O)c1 [compound 154, 2-(2-(1H-tetrazol-5-yl)-5-methoxyphenyl)-5-(1H-1,2,3-triazol-4-yl)isoindoline-1,3-dione]
  IC50: 5 to 20 µM

## COC(=O)c1cc(-c2c[nH]nn2)ccc1C(=O)Nc1sc(C)c(-c2ccc(OC)cc2)c1C#N [Example 9, methyl 2-{[3-cyano-4-(4-methoxyphenyl)-5-methylthiophen-2-yl]carbamoyl}-5-(2H-1,2,3-triazol-4-yl)benzoate]
  IC50: 5 to 20 µM

## CN(C)S(=O)(=O)c1cc(-c2cnn[nH]2)c(Cl)cc1C(=O)Nc1cc(-c2ccc(F)c(F)c2)ccc1C(=O)O [Example 26, 3-(5-chloro-2-(N,N-dimethylsulfamoyl)-4-(1H-1,2,3-triazol-5-yl)benzamido)-3′,4′-difluoro-[1,1′-biphenyl]-4-carboxylic acid]
  IC50: 2 to 5 µM

## CC(C)OC(=O)c1ccc(-c2ccc(F)c(F)c2)cc1N1Cc2ccc(CO)cc2C1=O [compound 156, isopropyl 3′,4′-difluoro-3-(6-(hydroxymethyl)-1-oxoisoindolin-2-yl)biphenyl-4-carboxylate]
  IC50: < 20 µM

## CC(C)[C@H](N)C(=O)OCCOC(=O)c1ccc(-c2ccccc2)cc1N1C(=O)c2ccc(-c3c[nH]nn3)cc2C1=O [Compound 74, 3-[1,3-Dioxo-5-(1H-[1,2,3]triazol-4-yl)-1,3-dihydroisoindol-2-yl]biphenyl-4-carboxylic acid 2-{[(2S)-2-amino-3-methylbutanoyl]oxy}ethyl ester]
  IC50: < 20 µM

## O=C1c2ccc(-c3c[nH]nn3)cc2C(=O)N1c1cc(-c2ccccc2)cnc1O [Compound 83, 2-(2-Hydroxy-5-phenylpyridin-3-yl)-5-(1H-[1,2,3]triazol-4-yl)-isoindole-1,3-dione]
  IC50: 2 to 5 µM

## CC(CN(C)C)OC(=O)c1ccc(-c2ccc(Cl)cc2Cl)cc1NC(=O)c1cc(C(=O)O)c(O)cc1C(=O)O (centres unmarked) [Example 73, 2-{[2′,4′-dichloro-4-({[1-(dimethylamino)propan-2-yl]oxy}carbonyl)-[1,1′-biphenyl]-3-yl]carbamoyl}-5-hydroxybenzene-1,4-dicarboxylic acid]
  IC50: < 0.5 µM

## O=C(OCCN1CCCC1)c1ccc(-c2ccccc2)cc1N1C(=O)c2ccc(-c3c[nH]nn3)cc2C1=O [Compound 68, 3-[1,3-Dioxo-5-(1H-[1,2,3]triazol-4-yl)-1,3-dihydroisoindol-2-yl]biphenyl-4-carboxylic acid 2-pyrrolidin-1-yl-ethyl ester]
  IC50: 2 to 5 µM

## NC(COC(=O)c1ccc(-c2ccccc2)cc1N1C(=O)c2ccc(-c3c[nH]nn3)cc2C1=O)C(=O)O (stereo in doubt) [Compound 73, 3-[1,3-Dioxo-5-(1H-[1,2,3]triazol-4-yl)-1,3-dihydroisoindol-2-yl]biphenyl-4-carboxylic acid (2S)-2-amino-2-carboxy-ethyl ester]
  IC50: 2 to 5 µM

## O=C1c2ccc(-c3c[nH]nn3)cc2C(=O)N1c1cc(-c2ccccc2)ccc1-c1nnn[nH]1 [Example 54]
  IC50: 2 to 5 µM

## O=C(O)c1ccc(-c2ccc(F)c(F)c2)cc1N1Cc2ccc(-c3nn[nH]c3-c3ccccc3)cc2C1=O [compound 163, 3′,4′-difluoro-3-(1-oxo-6-(5-phenyl-1H-1,2,3-triazol-4-yl)isoindolin-2-yl)biphenyl-4-carboxylic acid]
  IC50: 0.5 to 2 µM

## Nc1ccc(-c2ccc(N3C(=O)c4ccc(-c5c[nH]nn5)cc4C3=O)c(C(=O)O)c2)cn1 [Example 65]
  IC50: 2 to 5 µM

## CN(C)CCOC(=O)c1ccc(-c2ccc(F)c(F)c2)cc1N1Cc2ccc(C(=O)O)cc2C1=O [Compound 120, 2-[4-(2-Dimethylamino-ethoxycarbonyl)-3′,4′-difluorobiphenyl-3-yl]-3-oxo-2,3-dihydro-1H-isoindole-5-carboxylic Acid]
  IC50: 5 to 20 µM

## Cn1cc(-c2ccccc2)cc(N2C(=O)c3ccc(-c4c[nH]nn4)cc3C2=O)c1=O [compound 147, 2-(1-methyl-2-oxo-5-phenyl-1,2-dihydropyridin-3-yl)-5-(1H-1,2,3-triazol-4-yl)isoindoline-1,3-dione]
  IC50: < 20 µM

## O=C(O)c1cc(-c2cnccn2)ccc1N1C(=O)c2ccc(-c3c[nH]nn3)cc2C1=O [Example 63]
  IC50: 5 to 20 µM

## COC(=O)c1cc(-c2ccccc2)ccc1N1C(=O)c2ccc(C(=O)NS(C)(=O)=O)cc2C1=O [Example 40]
  IC50: < 20 µM

## CC(=O)OCCOC(=O)c1ccc(-c2ccc(F)c(F)c2)cc1N1C(=O)c2ccc(-c3cnn[nH]3)cc2C1=O [compound 168, 2-(acetyloxy)ethyl 3-[1,3-dioxo-5-(1H-1,2,3-triazol-5-yl)-2,3-dihydro-1H-isoindol-2-yl]-3′,4′-difluoro[1,1′-biphenyl]-4-carboxylate]
  IC50: < 20 µM

## COC(=O)c1ccc(-c2ccc(F)c(F)c2)cc1N1Cc2ccc(-n3cnnn3)cc2C1=O [Compound 121, 3′,4′-Difluoro-3-(1-oxo-6-tetrazol-1-yl-1,3-dihydroisoindol-2-yl)biphenyl-4-carboxylic acid methyl ester]
  IC50: < 20 µM

## O=C(O)c1cc(C(=O)Nc2cc(-c3ccc(F)c(F)c3)ccc2C(=O)O)c(C(=O)O)cc1Cl [Example 46, 2-({4-carboxy-3′,4′-difluoro-[1,1′-biphenyl]-3-yl}carbamoyl)-5-chlorobenzene-1,4-dicarboxylic acid]
  IC50: < 0.5 µM

## O=C(NS(=O)(=O)c1ccccc1)c1ccc2c(c1)C(=O)N(c1ccc(-c3ccccc3)cc1C(=O)O)C2=O [Example 22]
  IC50: 2 to 5 µM
